{"source": "patent US20140242609A1", "about": "“Diagnosis and treatment of kidney stones, methods and compositions therefor” (Washington University, priority 2013, published 2014)", "key": {"miR-9-1 promoter": {"tested_on": "miR-9-1 promoter", "experiment": "ChIP over miR-9-1 promoter in TALH cells of treated mice", "assay_type": "in vivo, mouse", "conditions": "for fold enrichment of NFATc1 over miR-9-1 promoter region: versus vehicle", "method": "(§1) Freshly isolated TALH cells or primary TALH cell cultures were cross-linked in 1% paraformaldehyde (pH7.0) for 10 min at room temperature. The cross-linked cells were lysed following to instruction of MAGnify ChIP system (Invitrogen). Chromatin was sonicated into 500 bp fragments with Bioruptor UCD-200 (High power, 15 cycles of 30 seconds ON, 30 seconds OFF; Diagenode). Sheared chromatin was precipitated with antibody-bound Dynabeads (Invitrogen). Following reverse crosslink and DNA extraction, antibody-bound DNA was eluted and analyzed with real-time PCR. Two criteria for normalization were applied: fold enrichment over anti-IgG background signal and input control over chromatin input signal.\nas §1, with “OFF,” for “OFF;”"}, "claudin-14 mRNA": {"tested_on": "claudin-14 mRNA", "experiment": "claudin-14 mRNA levels in mouse kidney after systemic treatment (real-time PCR)", "assay_type": "in vivo", "conditions": "for claudin-14 mRNA, change: 30 mg/kg BW−1 per day for 6 days, 24 hrs following the last treatment; for claudin-14 mRNA relative to control level: by 8 hrs and through to 12 hrs", "method": "NPS2143 and cinacalcet (Table 1) were dissolved in vehicle—20% (w/v) (2-Hydroxypropyl)-β-cyclodextrin solution and fed to mice with gavage syringe. Cyclosporin-A (Sandimmune; Table 1) was diluted in 0.9% saline and I.P. injected to animals. Control animals received vehicle injection (13% wiv Cremophor EL and 32.9% ethanol). For dietary Ca^2+ manipulation, animals were fed with the following diets for six consecutive days: basal diet: 0.61% Ca^2+ (TestDiet #5755); low Ca^2+ diet: 0 Ca^++ (TestDiet #5855); high Ca^2+ diet: 5% Ca^2+ (TestDiet #5AVB). All animals had free access to water and were housed under a 12 hr light cycle. Blood samples were taken by cardiac puncture rapidly after initiation of terminal anesthesia and centrifuged at 4° C. for 10 min. Kidney were dissected out and immediately frozen at −80° C.\nTotal RNA including microRNA was extracted using Trizol (Invitrogen). Cellular mRNA was reverse transcribed using the Superscript-III kit (Invitrogen), followed by real-time PCR amplification using SYBR Green PCR Master Mix (Bio-Rad) and Eppendorf Realplex2S system. The design of claudin-14 primers was described above. The design of pri-miRNA primers was according to Ma et al., (2010). Results were expressed as 2^−ΔCt values with ΔCT=Ctgene−Ctβ-actin.\nSAHA and TsA were dissolved in 5% (w/v) ethanol/0.9% saline solution and fed to mice with gavage syringe. Furosemide was dissolved in 50% (w/v) DMSO/0.9% saline solution and I.P. injected to animals. All animals had free access to water and were housed under a 12 hr light cycle. Blood samples were taken by cardiac puncture rapidly after initiation of terminal anesthesia and centrifuged at 4° C. for 10 min. Kidney were dissected out and immediately frozen at −80° C.\nTotal RNA including microRNA was extracted using Trizol (Invitrogen). Cellular mRNA was reverse transcribed using the Superscript-III kit (Invitrogen), followed by real-time PCR amplification using SYBR Green PCR Master Mix (Bio-Rad) and Eppendorf Realplex2S system. The design of claudin-14 primers was described before by Gong et al., 2012. The design of pri-miRNA primers and ChIP primers was according to Gong et al., 2013. Results were expressed as 2^−ΔCt values with ΔCT=Ctgene−Ctβ-actin. […]\nNPS2143 and cinacalcet (Table 9) were dissolved in vehicle −20% (w/v) (2-Hydroxypropyl)-β-cyclodextrin solution and fed to mice with gavage syringe. Cyclosporin-A (Sandimmune; Table 9) was diluted in 0.9% saline and I.P. injected to animals. Control animals received CNI vehicle injection (13% wiv Cremophor EL and 32.9% ethanol). FK506 was dissolved in CNI vehicle, diluted in 0.9% saline and I.P. injected to animals. For dietary Ca^+ manipulation, animals were fed with the following diets for six consecutive days: basal diet: 0.610% Ca^++ (TestDiet #5755); low Ca^++ diet: 0 Ca^++ (TestDiet #5855); high Ca^++ diet: 5% Ca^+ (TestDiet #5AVB). All animals had free access to water and were housed under a 12 hr light cycle. Blood samples were taken by cardiac puncture rapidly after initiation of terminal anesthesia and centrifuged at 4° C. for 10 min. Kidney were dissected out and immediately frozen at −80° C.\nTotal RNA including microRNA was extracted using Trizol (Invitrogen). Cellular mRNA was reverse transcribed using the Superscript-III kit (Invitrogen), followed by real-time PCR amplification using SYBR Green PCR Master Mix (Bio-Rad) and Eppendorf Realplex2S system. The design of claudin-14 primers was described before by Gong. Y., et al., 2012. The design of pri-miRNA primers was according to Ma. L., et al., 2010. Results were expressed as 2^−ΔCt values with ΔCT=Ctgene−Ctβ-actin."}, "[1]": {"conditions": "TPTX mice, single dose 30 mg/kg BW−1, 2 hrs"}, "[2]": {"conditions": "cyclosporine-A pre-treated animals, 30 mg/kg BW−1, 2 hrs"}, "[3]": {"conditions": "second dose 30 mg/kg BW−1 at 12 hrs, measured at 14 hrs"}, "[4]": {"conditions": "single oral dose 30 mg/kg BW−1, 30 mg/kg"}}, "note": "Values joined by “and” are separate entries in the source; they are usually repeats but may differ in a detail not shown here. Equal entries are not always repeated. “Also recorded” adds a separate entry of the source."}
{"smiles": "C[C@@H](NCCCc1cccc(C(F)(F)F)c1)c1cccc2ccccc12", "note": "[cinacalcet]", "values": [{"measurement": "fold enrichment of NFATc1 over miR-9-1 promoter region", "setting": "miR-9-1 promoter; 30 mg/kg BW−1, 2 hrs", "result": "without significant effect"}, {"measurement": "claudin-14 expression, induction (dose response)", "setting": "claudin-14 mRNA; 15 mg/kg BW−1, 2 hrs", "result": 2.33, "unit": "fold"}, {"measurement": "claudin-14 expression, induction (dose response)", "setting": "claudin-14 mRNA; 30 mg/kg BW−1, 2 hrs", "result": 3.17, "unit": "fold"}, {"measurement": "claudin-14 mRNA, change", "setting": "claudin-14 mRNA", "result": "Neither NPS2143 nor cinacalcet caused changes"}, {"measurement": "claudin-14 expression, induction (dose response)", "setting": "claudin-14 mRNA; 45 mg/kg BW−1, 2 hrs", "result": 6.38, "unit": "fold"}, {"measurement": "claudin-14 expression levels, upregulation", "setting": "claudin-14 mRNA; [1]", "result": 3.41, "unit": "fold"}, {"measurement": "claudin-14 mRNA levels, increase", "setting": "claudin-14 mRNA; [2]", "result": 1.73, "unit": "fold"}, {"measurement": "claudin-14 mRNA levels, increase", "setting": "claudin-14 mRNA; [3]", "result": 3.23, "unit": "fold"}, {"measurement": "claudin-14 mRNA level, upregulation", "setting": "claudin-14 mRNA; single oral dose 30 mg/kg BW−1, 2 hrs, intact mice, versus vehicle", "result": 3.3, "unit": "fold"}, {"measurement": "claudin-14 mRNA level, upregulation (ceiling)", "setting": "claudin-14 mRNA; single oral dose 30 mg/kg BW−1, 4 hrs, versus vehicle, 30 mg/kg", "result": "3.97 fold and 3.98 fold"}, {"measurement": "claudin-14 mRNA relative to control level", "setting": "claudin-14 mRNA; [4]", "result": "recovered to its control level; also recorded: no significant change"}]}
{"smiles": "O=C(CCCCCCC(=O)Nc1ccccc1)NO", "note": "[SAHA, Suberanilohydroxamic acid]", "values": [{"measurement": "H3K9 and H3K14 acetylation, miR-9-1 promoter, increase", "setting": "miR-9-1 promoter; 25 mg/kg BW−1, 4 hrs", "result": 2.40, "unit": "fold"}, {"measurement": "NFAT binding to miR-9-1 promoter", "setting": "miR-9-1 promoter; 25 mg/kg BW−1, 4 hrs", "result": "not affected"}, {"measurement": "CLDN14 mRNA, dose response", "setting": "claudin-14 mRNA; 5 mg/kg to 25 mg/kg, 4 hrs", "result": "downregulation of CLDN14 at dosage as low as 5 mg/kg"}, {"measurement": "effects on CLDN14 mRNA in the kidney", "setting": "claudin-14 mRNA; 25 mg/kg BW−1, 12 hrs", "result": "dissipated"}, {"measurement": "reduction of CLDN14 expression in the kidney", "setting": "claudin-14 mRNA; 25 mg/kg BW−1, by 4 hrs and through to at least 8 hrs", "result": "persisted"}, {"measurement": "CLDN14 mRNA levels in the kidney, reduction", "setting": "claudin-14 mRNA; single dose 25 mg/kg BW−1, 2 hrs", "result": 56, "unit": "%"}]}
{"smiles": "CC(C)(Cc1ccc2ccccc2c1)NC[C@@H](O)COc1cccc(Cl)c1C#N", "note": "[NPS2143]", "values": [{"measurement": "H3K9 and H3K14 acetylation levels, miR-9-1 promoter region", "setting": "miR-9-1 promoter; 30 mg/kg BW−1, 2 hrs, higher than vehicle level", "result": 2.43, "unit": "fold"}, {"measurement": "fold enrichment of NFATc1 over miR-9-1 promoter region", "setting": "miR-9-1 promoter; 30 mg/kg BW−1, 2 hrs", "result": 3.55, "unit": "fold"}, {"measurement": "claudin-14 mRNA levels, reduction (dose response)", "setting": "claudin-14 mRNA; 15 mg/kg BW−1, 2 hrs", "result": 45, "unit": "%"}, {"measurement": "claudin-14 mRNA levels, reduction (dose response)", "setting": "claudin-14 mRNA; 30 mg/kg BW−1, 2 hrs", "result": 82, "unit": "%"}, {"measurement": "claudin-14 mRNA, change", "setting": "claudin-14 mRNA", "result": "Neither NPS2143 nor cinacalcet caused changes"}, {"measurement": "claudin-14 mRNA levels, reduction (dose response)", "setting": "claudin-14 mRNA; 45 mg/kg BW−1, 2 hrs", "result": 89, "unit": "%"}, {"measurement": "claudin-14 gene expression, downregulation", "setting": "claudin-14 mRNA; [1]", "result": 35, "unit": "%"}, {"measurement": "claudin-14 mRNA levels, change", "setting": "claudin-14 mRNA; [2]", "result": "failed to elicit any significant change"}, {"measurement": "claudin-14 mRNA levels, reduction", "setting": "claudin-14 mRNA; [3]", "result": 77, "unit": "%"}, {"measurement": "claudin-14 mRNA level, downregulation", "setting": "claudin-14 mRNA; single oral dose 30 mg/kg BW−1, 2 hrs, versus vehicle", "result": 80, "unit": "%"}, {"measurement": "claudin-14 mRNA, percent of control level", "setting": "claudin-14 mRNA; single oral dose 30 mg/kg BW−1, 4 hrs", "result": 78, "unit": "%"}, {"measurement": "claudin-14 mRNA relative to control level", "setting": "claudin-14 mRNA; [4]", "result": "completely recovered to its control level; also recorded: no significant change"}]}
